Results taken from patent publication US6461997B1, “Triazole sulfones having herbicidal activity” (Monsanto Technology LLC, priority 1999, dated 2002).

What was measured:
SOLNI (black nightshade) [1] = experiment: Pre-emergence herbicidal activity, warm season; type: in vivo, Solanum nigrum; conditions: GR80 = lowest tested rate (300, 100, 30, 10 g/ha) with 80% or greater inhibition; approx. 14 days after treating; 30/21° C.
Outline: (§1)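 GR80 values derive from percent inhibition relative to untreated plants, read roughly 14 days after sowing and pre-emergence soil-surface treatment (compound in 50:50 acetone/water; rates typically 10, 30, 100, 300 g/ha). Warm-season weeds grew at 30/21° C day/night, cool-season ones at 18/13° C; an asterisk marks activity without reaching 80% at the highest rate.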

[2] = tested on: CHEAL (common lambsquarters); experiment: Pre-emergence herbicidal activity, warm season; type: in vivo, Chenopodium album; conditions: GR80 = lowest tested rate (300, 100, 30, 10 g/ha) with 80% or greater inhibition; approx. 14 days after treating; 30/21° C.
Outline: as §1

SETFA (giant foxtail) [3] = experiment: Pre-emergence herbicidal activity, warm season; type: in vivo, Setaria faberi; conditions: GR80 = lowest tested rate (300, 100, 30, 10 g/ha) with 80% or greater inhibition; approx. 14 days after treating; 30/21° C.
Outline: as §1

[4] = tested on: GALAP (catchweed bedstraw); experiment: Pre-emergence herbicidal activity, cool season; type: in vivo, Galium aparine; conditions: lowest tested rate with 80% or greater inhibition; rates 300, 100, 30, 10 g/ha; about 14 days
Outline: as §1

[5] = tested on: LAMPU (purple deadnettle); experiment: Pre-emergence herbicidal activity, cool season; type: in vivo, Lamium purpureum; conditions: lowest tested rate with 80% or greater inhibition; rates 300, 100, 30, 10 g/ha; about 14 days
Outline: as §1

ABUTH (velvetleaf) = experiment: Pre-plant incorporated (PPI) herbicidal activity, warm season; type: in vivo, Abutilon theophrasti; conditions: for PPI activity (GR80) ABUTH: pre-plant incorporated, GR80 = lowest tested rate with 80% or greater inhibition, approx. 14 days after treating, 30/21° C.
Outline: (§2)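 Incorporation into cover soil: a known compound amount, dissolved or suspended in organic solvent, was sprayed onto it and mixed before layering over sown seeds. Plants grew under greenhouse conditions (30/21° C warm season; 18/13° C cool season, greenhouse or growth chamber). Rated ~14 days later as % inhibition.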

SOLNI (black nightshade) [6] = experiment: as above; type: in vivo, Solanum nigrum; conditions: for PPI activity (GR80) SOLNI: pre-plant incorporated, GR80 = lowest tested rate with 80% or greater inhibition, approx. 14 days after treating, 30/21° C.
Outline: as §2

SETFA (giant foxtail) [7] = experiment: as above; type: in vivo, Setaria faberi; conditions: for PPI activity GR80, SETFA: pre-plant incorporated, lowest tested rate with 80% or greater inhibition, about 14 days
Outline: as §2

SINAR (wild mustard) = experiment: Pre-plant incorporated (PPI) herbicidal activity, cool season; type: in vivo, Sinapis arvensis; conditions: for PPI activity GR80, SINAR: pre-plant incorporated, lowest tested rate with 80% or greater inhibition, about 14 days
Outline: as §2

BROTE (downy brome) = experiment: as above; type: in vivo, Bromus tectorum; conditions: for PPI activity GR80, BROTE: pre-plant incorporated, lowest tested rate with 80% or greater inhibition, about 14 days
Outline: as §2

oilseed rape (BRSNS) = experiment: Selectivity test, PPI, cool season crop; type: in vivo, Brassica napus; conditions: Brassica napus, PPI application, read-out: Percent inhibition BRSNS
Outline: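 Percent inhibition relative to untreated controls, assessed roughly 14 days post-planting. Seeds were covered with a soil layer into which solvent-borne compound had been sprayed and mixed. Plants were then grown at 30/21° C. (warm season) or 18/13° C. (cool season) day/night regimes.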

[8] = Abutilon theophrasti, PPI application, read-out: Percent inhibition ABUTH
[9] = Solanum nigrum, PPI application, read-out: Percent inhibition SOLNI
[10] = Setaria faberi, PPI application, read-out: Percent inhibition SETFA
[11] = Brassica, weed, PPI application, read-out: Percent inhibition SINAR
[12] = Bromus tectorum, weed, PPI application, read-out: Percent inhibition BROTE

C=C(Br)CC(F)(F)S(=O)(=O)c1ncn(C(=O)N(CC)CC)n1 [Example 19]
Pre-emergence activity (GR80) SOLNI (SOLNI (black nightshade) [1]): 300 g/ha | Pre-emergence activity (GR80) CHEAL [2]: 100 g/ha | Pre-emergence activity (GR80) SETFA (SETFA (giant foxtail) [3]): 300 g/ha | Pre-emergence activity GR80, GALAP [4]: 300 g/ha | Pre-emergence activity GR80, LAMPU [5]: 30 g/ha | inhibition at 10 g/ha (ABUTH (velvetleaf); Abutilon theophrasti, PPI application, 10 g/ha, read-out: Percent inhibition ABUTH): 0% | inhibition at 30 g/ha (ABUTH (velvetleaf); [8]): 0% | inhibition at 100 g/ha (ABUTH (velvetleaf); [8]): 0% | inhibition at 300 g/ha (ABUTH (velvetleaf); [8]): 0% | inhibition at 900 g/ha (ABUTH (velvetleaf); [8]): 60% | PPI activity (GR80) ABUTH (ABUTH (velvetleaf)): 30 g/ha | inhibition at 10 g/ha (SOLNI (black nightshade) [6]; Solanum nigrum, PPI application, 10 g/ha, read-out: Percent inhibition SOLNI): 0% | inhibition at 30 g/ha (SOLNI (black nightshade) [6]; [9]): 0% | inhibition at 100 g/ha (SOLNI (black nightshade) [6]; [9]): 0% | inhibition at 300 g/ha (SOLNI (black nightshade) [6]; [9]): 40% | inhibition at 900 g/ha (SOLNI (black nightshade) [6]; [9]): 90% | PPI activity (GR80) SOLNI (SOLNI (black nightshade) [6]): 100 g/ha | inhibition at 10 g/ha (SETFA (giant foxtail) [7]; Setaria faberi, PPI application, 10 g/ha, read-out: Percent inhibition SETFA): 90% | inhibition at 30 g/ha (SETFA (giant foxtail) [7]; [10]): 100% | inhibition at 100 g/ha (SETFA (giant foxtail) [7]; [10]): 90% | inhibition at 300 g/ha (SETFA (giant foxtail) [7]; [10]): 100% | inhibition at 900 g/ha (SETFA (giant foxtail) [7]; [10]): 100% | PPI activity GR80, SETFA (SETFA (giant foxtail) [7]): 30 g/ha | inhibition at 10 g/ha (SINAR (wild mustard); Brassica, weed, PPI application, 10 g/ha, read-out: Percent inhibition SINAR): 100% | inhibition at 100 g/ha (SINAR (wild mustard); [11]): 100% | inhibition at 300 g/ha (SINAR (wild mustard); [11]): 100% | inhibition at 900 g/ha (SINAR (wild mustard); [11]): 100% | PPI activity GR80, SINAR (SINAR (wild mustard)): 300 g/ha | inhibition at 10 g/ha (BROTE (downy brome); Bromus tectorum, weed, PPI application, 10 g/ha, read-out: Percent inhibition BROTE): 0% | inhibition at 30 g/ha (BROTE (downy brome); [12]): 20% | inhibition at 100 g/ha (BROTE (downy brome); [12]): 20% | inhibition at 300 g/ha (BROTE (downy brome); [12]): 60% | inhibition at 900 g/ha (BROTE (downy brome); [12]): 95% | PPI activity GR80, BROTE (BROTE (downy brome)): 300 g/ha | inhibition at 10 g/ha (oilseed rape (BRSNS); 10 g/ha): 0% | inhibition at 30 g/ha (oilseed rape (BRSNS)): 0% | inhibition at 100 g/ha (oilseed rape (BRSNS)): 0% | inhibition at 300 g/ha (oilseed rape (BRSNS)): 60% | inhibition at 900 g/ha (oilseed rape (BRSNS)): 95%

CCSC(F)(F)S(=O)(=O)c1ncn(C(=O)N(CC)CC)n1 [Example 8, 1-(N,N-diethylcarbamoyl)-3-[difluoro(ethylthio)methylsulfonyl]-1,2,4-triazole]
Pre-emergence activity (GR80) SOLNI (SOLNI (black nightshade) [1]): 100 g/ha | Pre-emergence activity (GR80) CHEAL [2]: 100 g/ha | Pre-emergence activity (GR80) SETFA (SETFA (giant foxtail) [3]): 100 g/ha | Pre-emergence activity GR80, GALAP [4]: [empty] | Pre-emergence activity GR80, LAMPU [5]: [empty] | inhibition at 30 g/ha (ABUTH (velvetleaf); [8]): 0% | inhibition at 100 g/ha (ABUTH (velvetleaf); [8]): 10% | inhibition at 300 g/ha (ABUTH (velvetleaf); [8]): 20% | inhibition at 900 g/ha (ABUTH (velvetleaf); [8]): 100% | PPI activity (GR80) ABUTH (ABUTH (velvetleaf)): 300 g/ha | inhibition at 30 g/ha (SOLNI (black nightshade) [6]; [9]): 50% | inhibition at 100 g/ha (SOLNI (black nightshade) [6]; [9]): 100% | inhibition at 300 g/ha (SOLNI (black nightshade) [6]; [9]): 100% | inhibition at 900 g/ha (SOLNI (black nightshade) [6]; [9]): 100% | PPI activity (GR80) SOLNI (SOLNI (black nightshade) [6]): 100 g/ha | inhibition at 30 g/ha (SETFA (giant foxtail) [7]; [10]): 90% | inhibition at 100 g/ha (SETFA (giant foxtail) [7]; [10]): 100% | inhibition at 300 g/ha (SETFA (giant foxtail) [7]; [10]): 100% | inhibition at 900 g/ha (SETFA (giant foxtail) [7]; [10]): 100% | PPI activity GR80, SETFA (SETFA (giant foxtail) [7]): 30 g/ha | inhibition at 30 g/ha (SINAR (wild mustard); Brassica, weed, PPI application, 30 g/ha, read-out: Percent inhibition SINAR): 100% | inhibition at 100 g/ha (SINAR (wild mustard); [11]): 95% | inhibition at 300 g/ha (SINAR (wild mustard); [11]): 100% | inhibition at 900 g/ha (SINAR (wild mustard); [11]): 80% | PPI activity GR80, SINAR (SINAR (wild mustard)): 100 g/ha | inhibition at 30 g/ha (BROTE (downy brome); [12]): 0% | inhibition at 100 g/ha (BROTE (downy brome); [12]): 0% | inhibition at 300 g/ha (BROTE (downy brome); [12]): 65% | inhibition at 900 g/ha (BROTE (downy brome); [12]): 99% | PPI activity GR80, BROTE (BROTE (downy brome)): 300 g/ha | inhibition at 30 g/ha (oilseed rape (BRSNS)): 0% | inhibition at 100 g/ha (oilseed rape (BRSNS)): 0% | inhibition at 300 g/ha (oilseed rape (BRSNS)): 40% | inhibition at 900 g/ha (oilseed rape (BRSNS)): 100%
